# Experimental data reported in a melting point compilation (Tetko et al.; mined from patent text by program, amines drawn as free bases though some values may be those of a salt).
row,melting point [°C],Structure (SMILES)
1,161 to 162,CCc1cccc(-c2nc3ccccc3[nH]2)n1
2,174 to 175,CN(C)c1ccc([N+](=O)[O-])c(C#N)c1
3,102 to 106,O=[N+]([O-])c1nccn1C(Br)CBr (stereo not given)
4,158,CN(C)c1nn(C(=O)NC(C)(C)CF)c(=O)n1NCc1cccc(Cl)c1
5,116 to 117,Cc1ccc2oc(CC(=O)O)c(C)c2c1
6,81 to 83,CN(C)c1c([N+](=O)[O-])c(C(C)(C)C)nn1-c1c(Cl)cc(C(F)(F)F)cc1Cl
7,148 to 150,Cc1nc2c(OCc3c(Cl)ccc(N(C)C(=O)CNC(=O)CN4C(=O)c5ccccc5C4=O)c3Cl)cccn2c1Br
8,171 to 172,COC(=O)c1ccc(-c2nc(-c3ccc(Cl)s3)cs2)cc1
9,171 to 173,CCc1nn(C2CCCC2)c(N)c1C#N
10,164 to 166,CC1(C)CON(Cc2ccc(NC(=O)Cc3ccccc3C(=O)O)cc2)C1=O
11,82 to 83,N#CCCNC(=O)c1cccc(-c2cccc(Oc3ccccc3Cl)n2)c1
12,222 to 223,O=C(CC(NC(=O)OCc1ccccc1)c1ccccc1)Nc1n[nH]c(=S)s1 (stereo not given)
13,63 to 66,C#Cc1ccc2c(c1)C(=O)CC(C)(C)S2
14,143 to 148,CC(C)CC(C)(C(=O)NC1CCCCCCCCCCNC1=O)c1cccc(Cl)c1S (stereo not given)
15,189 to 191,O=C(CCCc1ccccc1)N[C@H]1C[C@H](C(=O)O)Nc2cc(Cl)cc(Cl)c21 (relative stereo)
16,178,CSc1cc(Nc2cccc(C)c2)c(S(=O)(=O)NC(C)(C)C)cn1
17,149 to 151,CC(C)(C)c1ccc(CN2CCC3(CC2)CC(=O)c2ccccc2O3)cc1
18,135 to 136,Cn1ccc(-c2cc(OC(F)F)n(-c3ccc(NC(=O)c4ccncc4F)cc3)n2)c1
19,61 to 63,CCCCCCCCCCCCC1=C(OC)C(=O)c2ccccc2C1=O
20,71.6 to 72.5,COc1cc(C=CC(=O)c2ccccc2F)cc(OC)c1
21,102 to 103,CC(C)(CO)CCCCCCCCCCCC(O)(CC(=O)O)CC(=O)O
22,192 to 193,CCOC(=O)C(=O)c1csc(NC(=S)Nc2ccccc2F)n1
23,220 to 222,O=c1[nH]c2ncc(-c3ccc(F)nc3)nc2n1CC1CCOCC1
24,79 to 82,CC(C)c1c(O)cccc1O
25,276,Fc1ccc(-c2nc(-c3ccc[nH]3)[nH]c2-c2ccc(F)cc2)cc1

row,melting point [°C],Structure (SMILES)
1,143 to 145,O=C(NCc1ccccn1)c1cc(OCC(F)(F)F)ccc1O
2,158 to 161,O=C1OC(=O)c2c(-c3ccccc3)c3ccccc3c3cccc1c23
3,223 to 224,Cc1nc2c(s1)-c1nc(Nc3ccccc3)ncc1CC2
4,> 300,CC1CC(=O)NN=C1c1ccc(C2=NNC(=O)CC2C)cc1 (stereo not given)
5,152 to 154,S=CN1CCC(C(c2ccccc2)c2ccccc2)CC1
6,90 to 91,Cc1cc(O)c(S(=O)(=O)CC(C)C)c(=O)o1
7,147 to 149,CCOC1CC2(C)C(CCC3C4CCC(C(C)=O)C4(C)CC(NC(=O)OCC(Cl)(Cl)Cl)C32)CC1OC(=O)OCC(Cl)(Cl)Cl (stereo not given)
8,162 to 163,NS(=O)(=O)c1ccc(-c2cc(F)c(F)cc2-c2ccc(F)c(Cl)c2)cc1
9,165 to 167,Cn1c(C(F)(F)F)cc(=O)n(-c2cc(OC3COC(=O)O3)c(Cl)cc2F)c1=O (stereo not given)
10,130 to 132,Cc1c(-c2ccccc2)c(N2CC[C@H](N(C)C)C2)c2oc(C(C)(C)F)nc2c1C#N
11,235 to 237,COc1cc2oc(=O)c(CCN3CCN(c4ccccc4OC)CC3)c(C)c2cc1O
12,135 to 138,Cc1noc(NS(=O)(=O)c2ccc(NC(=O)CN)cc2-c2ccc(CC(C)C)cc2)c1C
13,70 to 75,COc1ccc(F)cc1C(C)(C)CC(O)(Cc1cccc(C(N)=O)c1)C(F)(F)F (stereo not given)
14,87 to 88,O=C(NCCCCn1ccnc1)Nc1ccccc1Cl
15,161 to 163,CCOC(=O)c1cn(Cc2ccccc2OC)c2sc(-c3ccc(NC(C)=O)cc3)c(CN(C)Cc3ccccc3)c2c1=O
16,224 to 227,NS(=O)(=O)Cc1ccccc1-c1nnc(S)o1
17,191 to 193,O=C(CCc1ccccc1)Nc1c(O)cc(-c2ccccc2)oc1=O
18,204 to 206,Nc1nc(-c2ccccc2)c(-c2ccc(=O)n(CC3CC3)n2)s1
19,0,C1COCCOCCNCCOCCOCCOCCN1
20,160 to 161,CCC(COCc1ccc(C#N)cc1)n1cnc2c(N)nc3ccccc3c21 (stereo not given)
21,113 to 116,NCc1c(Nc2ccccc2)cccc1Oc1ccccc1
22,150 to 154,COCc1nc(C=NNC(=S)SC)c[nH]1
23,225 to 226,CCOC(=O)C1(NS(=O)(=O)c2ccc3c(Cl)cnc(NC(=N)N)c3c2)CCCC1
24,150 to 151,COc1cc(CCl)ccc1OCc1nc(-c2cccc(C#N)c2)oc1C
25,242 to 243,CCc1nc2c(N)nc3ccccc3c2n1OC(C)C

row,melting point [°C],Structure (SMILES)
1,179 to 181,Cc1oc2ccccc2c1C(=O)NCc1ccc2c(Br)c(O)ccc2c1
2,175 to 177,CCn1nc(C)c([N+](=O)[O-])c1C(N)=O
3,150 to 154,CCn1c(C(C)NS(=O)(=O)c2ccc(Cl)c(Cl)c2)cnc1Oc1ccc2cc[nH]c2c1 (stereo not given)
4,235 to 237,O=C(O)CN(CC(=O)c1ccccc1)c1c(C(=O)O)[nH]c2cc(Cl)cc(Cl)c12
5,107,COc1ccc(CSCC(=O)NO)cc1
6,68 to 69,CC(C)C[C@H](C(=O)O)N1CC[C@]2(CCCN2C(=O)C(C)C)C1=O
7,222 to 223,CO[C@H]1CN(c2c(F)c(N)c3c(=O)c(C(=O)O)cn(C4CC4)c3c2F)C[C@H]1N (relative stereo)
8,185 to 187,Cc1cc2nnc(C)n2nc1-c1cccc(C(F)(F)F)c1
9,85,COc1c(CCc2ccc(F)cc2)cc(Cl)cc1C(N)=O
10,140 to 144,N#Cc1ccc(-n2c(N)nc3ccccc32)cc1-c1ccoc1
11,106 to 107,Cc1c(C)n(CCF)c2c(OCc3ccccc3)nncc12
12,95 to 97,COc1ccc(N2CCOCC2)c2sc(C(=O)NC3CCN(C(=O)OC(C)(C)C)CCC3=O)nc12 (stereo not given)
13,185,CCCCCCCC=C1SC(=S)N(N=c2sc3ccccc3s2)C1=O
14,89,N#Cc1cc(F)c(N)cc1Oc1ccc2ccccc2c1
15,242 to 244,CCCc1nccn1-c1ncnc2nc[nH]c12
16,179 to 181,CNC(=O)Nc1scc(C(C)C)c1C#N
17,190 to 193,O=C(O)Cc1c(C(=O)c2ccccc2)[nH]c2c(Cl)cccc12
18,189 to 191,COc1ccc2c(-c3ccc(F)cc3F)noc2c1Cl
19,243 to 244,O=C(O)C1CCc2[nH]c3cc(Cl)c(Cl)cc3c2C1 (stereo not given)
20,60 to 61,CCOC(=O)/C(=C\c1ccc([N+](=O)[O-])cc1)P(=O)(OCC)OCC
21,91.2 to 92.2,COc1ccc(CNC=C(C(C)=O)C(C)=O)cc1
22,145,Cc1ccc(S(=O)(=O)OCC2COc3ccc4[nH]ccc4c3O2)cc1 (stereo not given)
23,215 to 218,NCc1ccc(-n2c(-c3cccnc3N)nc3ccc(-c4ccccc4)nc32)cc1
24,142 to 143,C[C@@H](n1cnc2cc(C(F)(F)F)ccc2c1=O)[C@](O)(Cn1cncn1)c1ccc(F)cc1F
25,207 to 209,Cc1cc(C)c(C)c(COc2cccc(-c3c(-c4ccccc4)coc3C(=O)NNC(=O)c3ccc(O)c(C#N)c3)c2)c1C

row,melting point [°C],Structure (SMILES)
1,180,Cn1c(=O)cc(-c2cccc(Cl)c2)c2cc(C(N)(c3ccc(Cl)cc3)c3cnccc3Cl)ccc21 (stereo not given)
2,201 to 204,CCC(=O)N1CCC(NC(=O)Nc2ccc(C(=O)O)cc2)CC1
3,64 to 67,COC(=O)CSCCCCN(c1cnc(-c2ccccc2)c(-c2ccccc2)n1)C(C)C
4,71 to 76,CC(C)c1cc(C(C)C)c(CC(=O)NS(=O)(=O)Oc2c(C(C)C)cc(C=O)cc2C(C)C)c(C(C)C)c1
5,206,O=c1c(CCCCO)c(O)c2cccnc2n1-c1ccccc1
6,100 to 102,Nc1c(Cl)cc(I)cc1Cl
7,131 to 133,COc1ccc(C=CC(=O)O)cc1-c1cc2c(cc1OCc1cccc(O)c1)C(C)(C)CCC2(C)C
8,77,CC(=CC(=O)O)CCCCCCCCCCCCC(=O)O
9,75.6 to 76.4,CCC(C)Sc1cc(C(F)(F)F)ccc1C(=O)c1cnoc1C1CC1 (stereo not given)
10,193 to 196,OC1CSC(Oc2cncc(-c3cccnc3F)c2)C(O)C1O (stereo not given)
11,168 to 169,C(=C\c1nc2ccccc2s1)/c1cccc(NCCCc2nnn[nH]2)c1
12,97 to 100,CC(=CCc1c(C)nc(N)nc1Cl)c1cc(Cl)ccc1Cl
13,128 to 129,CCOC(CN1CCOCC1)CN1C(=O)c2ccccc2CS1(=O)=O (stereo not given)
14,> 250,O=c1[nH]c2cc(C(F)(F)F)c(C(F)(F)F)cc2[nH]c1=O
15,> 310,O=c1[nH]c2c(c3nc(-c4ccccc4F)cn13)CNCC2
16,173 to 175,CCCN(C1CC(C)(C)Oc2ccc(O)cc21)S(=O)(=O)CC (stereo not given)
17,163 to 164,Cc1occ(-c2ccccc2F)c1C(=O)Nc1cccc(CO)c1
18,128 to 130,CN(C)c1cc(C(O)CS(C)(=O)=O)cc(N(C)C)c1 (stereo not given)
19,128 to 130,CCN1CCc2nc(N3CCN(Cc4ccccc4)CC3)ncc2C1=O
20,250,Cn1cncc1C(O)(c1ccc2ncccc2c1)c1ccc2nc(Cl)nc(-c3cccc(Cl)c3)c2c1 (stereo not given)
21,145 to 148,O=C(Cl)c1ccccc1SSc1ccccc1C(=O)Cl
22,74 to 76,N#CCC1=C(n2nc(-c3c(-c4ccccc4)nn4ccccc34)ccc2=O)CCCC1
23,204 to 205,CCc1ccc(C2CCC(c3ccc(Oc4ccc([N+](=O)[O-])cc4)cc3)(c3ccc(Oc4ccc([N+](=O)[O-])cc4)cc3)CC2)cc1

row,Structure (SMILES),melting point [°C]
1,CN(C(=O)Oc1ccc(Cl)c(C(C)(C)C)c1)c1cccc(Cl)c1,65 to 67
2,CC1CC2=CC(=O)CCC2C2C(F)CC3(C)C(OCc4ccc(S(N)(=O)=O)cc4)CCC3C12 (stereo not given),232
